# Laboratory results from patent publication US20180208622A1, “STABLE CRYSTALLINE FORM OF REGADENOSON” (SUN PHARMACEUTICAL INDUSTRIES LIMITED, priority 2015, published 2018).
# How the values were obtained:
# [1] = WO2008143667A1, cited from earlier work
# [2] = Stability studies of crystal Form S, followed by XRPD; assay type: physicochemical
# Description: XRD: X-ray powder diffraction analyses were carried out on a PANalytical Empyrean X-ray powder diffractometer using Cu K alpha radiation. The instrument was equipped with a line focus X-ray tube, and the voltage and amperage were set to 45 kV and 40 mA respectively. The scanning rate was set as 10 second per step and step size is set as 0.01°. The diffractometer was equipped with Pixcel^1D solid state detector and rotating sample stage. X-ray diffractometer was used to record diffractogram from 4° to 40° (2-theta).
compound,measurement,setting,value
"CNC(=O)c1cnn(-c2nc(N)c3ncn([C@@H]4O[C@H](CO)[C@@H](O)[C@H]4O)c3n2)c1 [polymorph C, adenosine, 2-[4-[(methylamino)carbonyl]-1H-pyrazol-1-yl]]",behaviour at elevated temperatures,[1]; elevated temperatures,desolvates to an unstable form
"CNC(=O)c1cnn(-c2nc(N)c3ncn([C@@H]4O[C@H](CO)C(O)C4O)c3n2)c1 (some centres unmarked) [Form S, adenosine, 2-[4-[(methylamino)carbonyl]-1H-pyrazol-1-yl]]",change in XRPD under stability conditions,[2]; 25° C. and 60% relative humidity for more than 6 months (FIG. 3),no significant change
same,change in XRPD in accelerated stability studies,[2]; 40° C. and 75% relative humidity for more than 2 months (FIG. 2),did not change significantly
same,stability when stored,[2]; stored at 25° C. and 60% relative humidity for at least 6 months,stable
"CNC(=O)c1cnn(-c2nc(N)c3ncn([C@@H]4O[C@H](CO)[C@@H](O)[C@H]4O)c3n2)c1 [Form A, adenosine, 2-[4-[(methylamino)carbonyl]-1H-pyrazol-1-yl]]",stability of the crystalline form,"[1]; among Form A, Form B, Form C and amorphous product",most stable form
